Assays:
[1] = molecular target: T1, extracellular TG2 in human HK-2 cells (Homo sapiens, UniProt P21980); test: Extracellular TG activity in HK-2 cells, biotin cadaverine incorporation into fibronectin (Example 1); type: cell-based; conditions: 400 μM of the site-specific pan TG inhibitor 1,3-Dimethyl-2-[(2-oxo-propyl)thio]imidazolium chloride
T1 construct: endogenous in cells; host or cells: HK-2 (kidney proximal tubular epithelium)
T1 sequence (P21980 1-687): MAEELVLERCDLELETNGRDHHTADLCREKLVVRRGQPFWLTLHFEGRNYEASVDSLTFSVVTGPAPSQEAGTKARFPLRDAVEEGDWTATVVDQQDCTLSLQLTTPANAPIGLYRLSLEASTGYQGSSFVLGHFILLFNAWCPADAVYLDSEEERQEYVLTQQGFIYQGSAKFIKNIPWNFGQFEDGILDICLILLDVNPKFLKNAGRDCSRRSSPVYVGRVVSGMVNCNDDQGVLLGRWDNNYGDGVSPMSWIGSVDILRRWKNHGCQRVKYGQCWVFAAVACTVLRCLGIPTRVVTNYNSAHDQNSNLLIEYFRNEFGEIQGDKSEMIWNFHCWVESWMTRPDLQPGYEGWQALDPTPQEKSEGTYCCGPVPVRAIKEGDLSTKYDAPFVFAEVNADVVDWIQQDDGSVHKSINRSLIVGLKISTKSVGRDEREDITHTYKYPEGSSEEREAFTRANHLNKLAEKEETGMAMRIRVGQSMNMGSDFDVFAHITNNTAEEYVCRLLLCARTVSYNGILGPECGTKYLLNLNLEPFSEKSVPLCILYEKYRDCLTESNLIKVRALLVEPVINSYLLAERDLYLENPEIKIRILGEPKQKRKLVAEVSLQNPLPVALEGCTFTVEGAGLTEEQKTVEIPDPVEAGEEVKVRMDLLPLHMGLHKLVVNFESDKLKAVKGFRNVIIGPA
Method: HK2 cells were plated onto fibronectin and incubated for 2 hours in the presence of 0.1M biotin cadaverine with either 4 ng/μl of human anti-TG2 antibody (AB1) (part A), 4 ng/μl of human anti-TG2 antibody (DC1) (part B) or 400 μM of the site-specific pan TG inhibitor 1,3-Dimethyl-2-[(2-oxo-propyl)thio]imidazolium chloride. […] Changes in optical density were measured at 450 nm in a 96 well plate reader. Data represents mean OD at 450 nm corrected to 1 mg of cell protein. n=6 wells per experimental group.
Extracellular TG activity was measured by modified cell ELISA. HK-2 epithelial cells were harvested using 0.1M EDTA or 0.25% trypsin/EDTA and plated at a density of 8×10^4 cells/well in serum free medium onto a 96 well plate that had been coated overnight with 100 μl/well of fibronectin (5 μg/ml in 50 mM Tris-HCl pH 7.4) (Sigma, Poole UK). Cells were allowed to attach for 2.5 h at 37° C. in the presence of the 0.1 mM biotin cadaverine [N-(5 amino pentyl biotinamide) trifluoroacetic acid] (Molecular Probes, Eugene Oreg., USA). Plates were washed twice with 3 mM EDTA/PBS and cells removed with 0.1% (w/v) deoxycholate in 5 mM EDTA/PBS. The supernatant was collected and used for protein determination. […] The reaction was stopped with 50 μl 2.5 M H2SO4 and the absorbance read at 450 nm.

[2] = test system: WI-38 cells; test: Scratch wound assay in WI-38 cells; type: cell-based, human; conditions: serum free media; Cytochalasin D 0.1 μM, R281 100 μM, Z DON 10 μM and 100 μM, Cub7402 5 μg/ml
Method: WI-38 cells (normal human lung fibroblasts ATCC cat#CCL-75) were plated in a 96 well Image Lock plate (Essen cat#4379) at 2×10^4/well in αMEM media (Life Technologies cat#32561) with 10% FBS and grown O/N to >97% confluence. Cells were washed 2× with αMEM media without serum and a scratch wound was generated using an Essen Wound Maker and the manufacturers protocol. The media was removed and replaced with 95 μl/well serum free media. Controls and test antibodies were added to the wells. The plate was placed in an Essen Incucyte and the closure of the wound was analysed using the scratch wound protocol.
Cytochalasin D was used as an assay control at 0.1 μM. R281, a small molecule non-specific transglutaminase inhibitor, was tested at 100 μM. Z DON, a peptide non reversible transglutaminase inhibitor was tested at 10 μM and 100 μM. The commercially available TG2 antibody Cub7402 (ABcam cat#ab2386) was tested at 5 μg/ml. Antibodies of the invention were tested on at least three occasions at various concentrations as indicated. In all experiments controls were Cytochalasin D at 0.1 uM and ZDON at two concentrations to show a dose dependant effect.

## CC(=O)CSc1n(C)cc[n+]1C.[Cl-] [1,3-Dimethyl-2-[(2-oxo-propyl)thio]imidazolium chloride, reference compound]
[1]
  inhibition of extracellular TG activity relative to AB1 and DC1: comparable

## C=C1[C@@H](C)[C@H]2[C@H](Cc3ccccc3)NC(=O)[C@]23[C@H](OC(C)=O)/C=C/[C@@](C)(O)C(=O)[C@@H](C)C/C=C/[C@H]3[C@@H]1O [Cytochalasin D, reference compound]
[2]
  effect on wound closure: inhibited wound closure

Reference: US10005846B2, “Anti-transglutaminase 2 antibodies” (MEDICAL RESEARCH COUNCIL TECHNOLOGY, priority 2012, dated 2018)
